The values below are quoted from earlier work in patent publication US11077099B2, “Oral tablet formulation of lenalidomide” (SAMYANG HOLDINGS CORPORATION, priority 2016, dated 2021).

The subject of this data set is multiple myeloma. The note with it: combination of lenalidomide and dexamethasone; patients with relapses or refractory disease.

With `Nc1cccc2c1CN(C1CCC(=O)NC1=O)C2=O` (centres unmarked) [lenalidomide], the disease-free survival time is given as 13.4 months and the overall survival is recorded as 38 months.
